# Literature values, collected in patent publication US20110105488A1, “SUBSTITUTED PYRROLIDINE AND PIPERIDINE COMPOUNDS, DERIVATIVES THEREOF, AND METHODS FOR TREATING PAIN” (Chlorion Pharma, Inc., priority 2008, published 2011).
# Legend:
# patients = settings: human, in vivo
# [1] = system: patients with post-herpetic neuralgia
# clinical trial subjects = settings: review of multiple clinical studies
structure (smiles),measurement,setting,value
NC(=O)N1c2ccccc2C=Cc2ccccc21 [carbamazepine],adverse effects evoked,patients,various sensory deficits
same,patients with rash and leucopenia,patients,~10%
NCC1(CC(=O)O)CCCCC1 [gabapentin],mean endpoint pain score,"[1]; 8-week trials, mean baseline 6.3",4.2
same,decrease in pain,"[1]; two placebo-controlled, parallel-group trials of 8-weeks duration",~33%
CC(C)C[C@H](CN)CC(=O)O [pregabalin],adverse effects evoked,clinical trial subjects,"significant somnolence, vertigo, and headache"
